“And” between values parts separate entries of the source, which are not always exact repeats. Equal values may be shown once. Read-outs that look alike come from different tables or passages of the source.
Tests used:
[1] = Rat ocular pharmacokinetics: GGA concentration in eye balls after topical eye drops (LC-MS/MS); type: in vivo; details: for Mean of Duplicate / R/L: per rat; for Concentration: single determination; for R/L: ratio of right to left eye concentration
Protocol: (§1) In Cohort 2 the efficacy of Formulation 102 was tested against Formulation 101 and vehicle controls at different time points.
(§2) • Route: topical eye drop formulation • Frequency: 4 or 8 doses, every 1 hour • Dose Administration : under isofluorane anesthesia (2.5%) • Dose Volume: 5 μL in each eye
(§3) • Species: Rat • Strain: Sprague-Dawley • Supplier: Harlan • Sex: Male • Weight at Initiation: 200 to 220 g • Number of Animals: 12 for Cohort 1, 26 for Cohort 2
Eye drops were applied every hour either for 4 hours or for 8 hours. Animals were euthanized 4 hours and 8 hours after the first dosing, and the eye balls collected on dry ice. Eyes were homogenized with a polytron homogenizer in ethanol. GGA was quantified in the eye ball lysates by liquid chromatography-tandem mass spectroscopy.

HSP70 [2] = assay: HSP70 analysis by ELISA in rat eyes after eye drops (Example 17, Cohort 2); type: in vivo; details: for Ratio: compound treated/vehicle treated, Average (AVE): HSP70, average of 4 rats; for Left (compound treated) AVE: HSP70, average of the left-eye values of Table 3 (pg/ml there); for Ratio treated eye/vehicle treated eye: HSP70, individual rat, left (compound) vs right (vehicle) eye; for HSP70: individual rat, compound-treated left eye, 5% eye drop 0.25 mg/eye per dose hourly, harvest time not stated
Protocol: as §1
Cohort 2: HSP70 analysis for ELISA only
as §2, §3

HSP70 [3] = assay: HSP70 induction in eye balls by eye drops, ELISA normalized by total protein (Example 18); type: in vivo, Rat
Protocol: Eye drops were applied every hour either for 4 hours or for 8 hours. Animals were euthanized 4 hours, 8 hours or 24 hours after the first dosing, and the eye balls collected on ice. Eyes were homogenized with a polytron homogenizer in a standard lysis buffer containing proteinase inhibitors. HSP70 was quantified by a commercially available ELISA kit and normalized by total protein concentration in the sample.

[4] = Ocular, retinal delivery of GGA by eye drop compared to systemic (PO) delivery, AUC (Example 21); type: in vivo; details: for Kp(eye ball) / Kp(retina): 180 mg/kg PO
[5] = Intraocular GGA levels, topical ocular 5% GGA versus 200 mg/kg oral; type: in vivo; details: topical ocular composition of 5% GGA vs 200 mg/kg GGA orally
From the text: The level achieved thereby into the ocular tissue was many-folds more, for example, about 5 times more than that achieved by systemic delivery by oral administration. […] Such is even more unexpected in view of the eye being a immunprotected organ which is predisposed to impede compounds from getting into the ocular tissue and to remove any compound entered into it.

[6] = contralateral eye, 8 doses, group average of Table 7 means (ng/g there), in ng/g
[7] = left (treated) eye, 4 doses, harvest 4 h
[8] = left (treated) eye, 8 doses, harvest 8 h
[9] = left (treated) eye, 4 hourly doses 0.25 mg/eye, harvest 4 h
[10] = left (treated) eye, 8 hourly doses 0.25 mg/eye, harvest 8 h
[11] = right (contralateral) eye, 4 doses, harvest 4 h
[12] = right (contralateral) eye, 8 doses, harvest 8 h
[13] = treated eye, 8 doses, group average of Table 7 means (ng/g there), in ng/g

contra/ipsi AVE ([1]; 4 doses, 4 h) | contra/ipsi AVE ([1]; 8 doses, 8 h) | 8 h contra AVE [1, 6] | Mean of Duplicate [1, 7] | R/L ([1]; 4 doses, 4 h) | R/L ([1]; 8 doses, 8 h) | 8 h ispi AVE [1, 13] | Kp(eye ball) [4] | Kp(retina) [4] | SMILES | Mean of Duplicate [1, 8] | Concentration [1, 9] | Concentration [1, 10] | Mean of Duplicate [1, 11] | Mean of Duplicate [1, 12] | Ratio: compound treated/vehicle treated, Average (AVE) (HSP70 [2]) | Left (compound treated) AVE (HSP70 [2]) | Ratio treated eye/vehicle treated eye (HSP70 [2]) | HSP70 (HSP70 [2]) | other results
0.349 | 0.1718 | 2986.667 | 14722 ng/g and 15163 ng/g and 19992 ng/g | 0.4357 and 0.2213 and 0.3901 | 0.1996 and 0.1209 and 0.1949 | 16846.83 | 0.71 | 2.21 | CC(=O)CCC=C(C)CC/C=C(\C)CC/C=C(\C)CCC=C(C)C (mixture of isomers) [CNS-101, cis-trans geranylgeranyl acetone] | 18546 ng/g and 13199 ng/g and 18795.5 ng/g | 14635 ng/g and 14809 ng/g and 15206 ng/g and 15120 ng/g and 19608 ng/g and 20376 ng/g | 18947 ng/g and 18145 ng/g and 12879 ng/g and 13519 ng/g and 18953 ng/g and 18638 ng/g | 6414.5 ng/g and 3355 ng/g and 7799.5 ng/g | 3701 ng/g and 1596 ng/g and 3663 ng/g | 1.665 | 952.4506 | 1.003 and 2.135 and 1.544 and 1.976 | 589.4561 pg/mL and 1023.901 pg/mL and 1211.234 pg/mL and 985.2114 pg/mL | 4 h contra AVE ([1]; contralateral eye, 4 doses, group average of Table 7 means (ng/g there), in ng/g): 5856.333; concentration at 4 h ([1]; male, Sprague-Dawley, rat, eye balls, topical, CNS-101 concentrations in eye balls, mean ± SD, 4 × 5 ml 5% CNS-101, measured after 4 hrs): 16600 ng/g; concentration at 8 h ([1]; male, Sprague-Dawley, rat, eye balls, topical, CNS-101 concentrations in eye balls, mean ± SD, 8 × 5 ml 5% CNS-101, measured after 8 hrs): 16800 ng/g; 4 h ispi AVE ([1]; treated eye, 4 doses, group average of Table 7 means (ng/g there), in ng/g): 16625.67; HSP70 expression in eye balls, mean ± SD (HSP70 [3]; topical ocular 5% CNS-101, 4 hours): 50.7 ± 8.01 pg/mg protein; HSP70 expression in eye balls, mean ± SD (HSP70 [3]; topical ocular 5% CNS-101, 8 hours): 55.9 ± 11.2 pg/mg protein; HSP70 expression in eye balls, mean ± SD (HSP70 [3]; topical ocular 5% CNS-101, 24 hours): 50.5 ± 10.8 pg/mg protein
– | – | – | – | – | – | – | – | – | CC(=O)CCC=C(C)CC/C=C(\C)CC/C=C(\C)CCC=C(C)C (mixture of isomers) [GGA, Geranylgeranyl acetone] | – | – | – | – | – | – | – | – | – | delivery into the retina and the eyeball ([4]; eye drop): effective delivery; levels of geranylgeranyl acetone achieved intraocularly, topical vs oral [5]: about 5 fold
0.3052 | 0.2617 | 2105 | 30309 ng/g and 21828 ng/g and 17344 ng/g | 0.3848 and 0.2037 and 0.327 | 0.1144 and 0.2267 and 0.444 | 8769.833 | 0.19 | 0.79 | CC(=O)CC/C=C(\C)CC/C=C(\C)CC/C=C(\C)CCC=C(C)C [CNS-102, (5E, 9E, 13E) geranylgeranyl acetone] | 10746 ng/g and 8395 ng/g and 7168.5 ng/g | 32854 ng/g and 27764 ng/g and 21506 ng/g and 22150 ng/g and 17494 ng/g and 17194 ng/g | 12094 ng/g and 9398 ng/g and 8505 ng/g and 8285 ng/g and 7547 ng/g and 6790 ng/g | 4447 ng/g and 5672 ng/g and 11663.5 ng/g | 1229 ng/g and 1903.5 ng/g and 3182.5 ng/g | 1.089 | 681.9337 | 0.5953 and 1.239 and 1.26 and 1.263 | 685.1953 pg/mL and 757.1621 pg/mL and 583.588 pg/mL and 701.7893 pg/mL | concentration at 4 h ([1]; male, Sprague-Dawley, rat, eye ball (contralateral eye), topical, 0.25 mg/eye, contralateral eye, 4 doses, group average of Table 7 means (ng/g there), read-out: 4 h contra AVE): 7260 ng/g; concentration at 4 h ([1]; male, Sprague-Dawley, rat, eye ball (treated, ipsilateral eye), topical, 0.25 mg/eye, treated eye, 4 doses, group average of Table 7 means (ng/g there), read-out: 4 h ispi AVE): 23200 ng/g

— US20130245126A1, “GERANYLGERANYLACETONE FORMULATIONS AND RETINAL DELIVERY THEREOF” (COYOTE PHARMACEUTICALS, INC., priority 2012, published 2013)
